Reference: patent US20130210907A1, “METHOD FOR PREVENTING OR TREATING ENTEROCHROMAFFIN CELL HYPERPLASIA-RELATED DISEASES BY QUERCETIN ADMINISTRATION” (HONG KONG BAPTIST UNIVERSITY, priority 2012, published 2013)

How the values were obtained:
[1] = tested on: PI-IBS rats; assay: Colonic EC cell counting (silver staining); assay type: in vivo, rat; settings: for EC cell density: PI-IBS rats, colon
Procedure: (§1) Six groups of 5 rats are tested. The groups setting and treatments are as described in Example 1. Different from Example 1, AWR test are not applied to the rats in this experiment in order to obtain the basal data without CRD stimulus. After the last drug administration, a 6 cm proximal colon (1-2 cm from caecum) is collected and divided into 3 parts, the proximal is fixed in 4% paraformaldehyde and embedded in paraffin for EC cell staining; the middle part is collected for 5-HT content measurement and electron microscopic evaluation, and the distal part is for western blotting analysis.
Tissue sections (5-μm thick) are deparaffinized and rehydrated for silver staining. Briefly, sections are incubated with 5% ammoniacal silver solution for 4 h at room temperature, then 2 h in 56° C. and subsequently 12 h at room temperature in a dark humidified chamber. After rinsing with water, 5% sodium hyposulfite is added and the tissue sections are incubated for 5 min at room temperature. The brown to black silver precipitate in the cytoplasm of EC cells represents as a positive reaction. A researcher blinded to treatment counted 5 random fields at 200× magnifications for each section, and the number of EC cells per mm^2 of mucosa is quantified using Image J NIH software.

[2] = tested on: PI-IBS rats; assay: Colonic tissue 5-HT content (capillary electrophoresis, laser-induced fluorescence); assay type: in vivo, rat; settings: for 5-HT content: PI-IBS rats, colon
Procedure: as §1
5-HT content in the colon tissue is assayed based on our previously reported procedure in Qi S D, Tian S L, Xu H X, Sung J J, Bian Z X. Quantification of luminally released serotonin in rat proximal colon by capillary electrophoresis with laser-induced fluorescence detection. Anal Bioanal Chem. 2009 April; 393(8):2059-66. Briefly, the colon segment is homogenized in 15% iced trichloroacetic acid; for 2 min and stored at 4° C. for 2 h. After centrifuge at 10,000 G for 15 min, the supernatant of each sample is filtered using 0.22 μm filters and extracted with diethyl ether for five times to remove the trichloroacetic acid. The prepared samples are added to derivatization solution (150 mM sodium tetraborate, 25% acetonitrile, 2 mM CFSE) and incubated for […] in dark at room temperature. The 5-HT content is analyzed by capillary electrophoresis with laser-induced fluorescence detection and expressed as nanogram per milligram (wet weight of tissue).

[3] = tested on: TPH; assay: Colonic TPH expression by Western blot; assay type: in vivo, rat
Procedure: The colon tissues are homogenized and sonicated on ice for protein extraction. After determination of protein content, the samples protein are denatured at 100° C. for 5 min. Proteins are separated by 10% SDS-PAGE and transferred to PVDF membranes (Bio-Rad, CA). After blocking with 5% nonfat milk, the membranes are incubated overnight at 4° C. with rabbit anti-TPH antibody (1:1000, Santa Cruz, Calif.), then incubated with the appropriate secondary antibodies for 1 h at room temperature. The immunoreaction is detected using ECL Western blotting kit (ECL, Amersham, UK). Bands are visualized on Biomax X-ray film, and optical density of each band is semi-quantified by computer software (Image J.NIH). All detected protein bands are normalized to β-actin levels.

[4] = tested on: QGP-1 cells; assay: Cytotoxicity by lactate dehydrogenase (LDH) release; assay type: cell-based, human; settings: QGP-1, 25-100 μM, 24 h
Procedure: The cytotoxicity of Quercetin is determined by lactate dehydrogenase (LDH) assay in QGP-1 cells. Cells are seeded at a density of 5,000 cells/well into 96-well plates and incubated with Quercetin (0-100 μM, 0.01% DMSO) for 24 h. Release of cytoplasmic enzyme lactate dehydrogenase is measured after incubation by using colorimetric assay kit (Roche Molecular Biochemicals, Germany) according to the manufacturer's instructions.

[5] = tested on: cyclin B1; assay: Western blot of cyclin B1 in QGP-1 cells; assay type: cell-based, human; settings: QGP-1, 50-100 μM, 24 h
Procedure: After drug treatment, the cells are lysed and centrifuged to collect the protein extract After determination of protein content, the samples protein are denatured at 100° C. for 5 min Proteins are separated by 10-12% SDS-PAGE and transferred to PVDF membranes (Bio-Rad, CA). After blocking with 5% nonfat milk for 1 h at room temperature, the membranes are incubated overnight at 4° C. with primary antibodies (mouse anti-cyclin BE 1:500, Abcam; goat anti-p-Cdc2:1:500, Santa Cruz; mouse anti-p21: 1:500, BD Bioscience). After washing three times in TBST, the membranes where incubated with the appropriate secondary antibodies (1:2000, Invitrogen) for 1 h at room temperature. The immunoreaction is detected using ECL Western blotting kit (ECL, Amersham, UK). Bands are visualized on Biomax X-ray film, and optical density of each band is semi-quantified by software (Image J.NIH). In order to adjust for any variations in loading, all detected protein bands are normalized to β-actin levels.

[6] = tested on: humans; settings: 1000 mg/kg/day orally for several months; cited from earlier work

## O=c1c(O)c(-c2ccc(O)c(O)c2)oc2cc(O)cc(O)c12 [Quercetin, 2-(3,4-dihydroxyphenyl)-3,5,7-trihydroxy-4H-chromen-4-one]
[1]; 5 mg/kg i.g.
  EC cell density: 89 ± 5 Number/mm^2
[1]; 10 mg/kg i.g.
  EC cell density: 72 ± 7 Number/mm^2
[1]; 20 mg/kg i.g.
  EC cell density: 105 ± 8 Number/mm^2
[1]; low dose (5 mg/kg)
  Decrease of EC cells number compared with the PI-IBS group: 18%
[1]; median dose (10 mg/kg)
  Decrease of EC cells number compared with the PI-IBS group: 42%
[2]; 5 mg/kg i.g.
  5-HT content: 5.15 ± 0.58 ng/mg
[2]; 10 mg/kg i.g.
  5-HT content: 4.63 ± 0.92 ng/mg
[2]; 20 mg/kg i.g.
  5-HT content: 5.50 ± 0.65^ ng/mg
[2]; low dose (5 mg/kg)
  Decrease of 5-HT content compared with the PI-IBS group: 28%
[2]; median dose (10 mg/kg)
  Decrease of 5-HT content compared with the PI-IBS group: 35%
[3]; PI-IBS rats, colon, 10 mg/kg i.g.
  TPH/actin ratio: 0.62 ± 0.11
[3]; median dose, 10 mg/kg, p<0.05
  Reduction of colonic TPH expression in PI-IBS rats: ~22.8%
[4]
  LDH release: significant and dose-dependent increase
[5]
  Protein level of cyclin B1: significantly decrease
[6]
  Toxicity on oral administration to humans: no toxicity
